Test results: US20250115598A1 (Anaxis Pharma Pty Ltd, priority 2021, published 2025)

Assays:
[1] = target: human MLKL (full length) (Homo sapiens (Human), UniProt Q8NB16); assay: KINOMEscan binding assay, human MLKL (full length); conditions: KINOMEscan, Table 21; read-out: Human MLKL (full-length) (KD)
Method: Binding affinity of the test compounds for human MLKL (full length), mouse MLKL (full length), human RIPK1 and human RIPK3 was determined using the KINOMEscan™ technology developed by DiscoverX (USA; http://www.discoverx.com). The assay was conducted according to manufacturer instructions.
Kinase assays. For most assays, kinase-tagged T7 phage strains were grown in parallel in 24-well blocks in an E. coli host derived from the BL21 strain. E. coli were grown to log-phase and infected with T7 phage from a frozen stock (multiplicity of infection=0.4) and incubated with shaking at 32° C. until lysis (90-150 minutes). The lysates were centrifuged (6,000×g) and filtered (0.2 μm) to remove cell debris. The remaining kinases were produced in HEK-293 cells and subsequently tagged with DNA for qPCR detection. […] The liganded beads were blocked with excess biotin and washed with blocking buffer (SeaBlock (Pierce), 1% BSA, 0.05% Tween 20, 1 mM DTT) to remove unbound ligand and to reduce non-specific phage binding. […] All reactions were performed in polypropylene 384-well plates in a final volume of 20 μL. […] The kinase concentration in the eluates was measured by qPCR.
An 11-point 3-fold serial dilution of each test compound was prepared in 100% DMSO at 100× final test concentration and subsequently diluted to 1× in the assay (final DMSO concentration=1%). Most Kos were determined using a compound top concentration=30,000 nM.
KD for each test compound was calculated with a standard dose-response curve using the Hill equation (equation (1)): […]
The Hill Slope was set to −1.
Curves were fitted using a non-linear least square fit with the Levenberg-Marquardt algorithm.

[2] = target: human RIPK1 (Homo sapiens (Human), UniProt Q13546); assay: KINOMEscan binding assay, human RIPK1; conditions: Table 21
human RIPK1, sequence (Q13546 whole entry): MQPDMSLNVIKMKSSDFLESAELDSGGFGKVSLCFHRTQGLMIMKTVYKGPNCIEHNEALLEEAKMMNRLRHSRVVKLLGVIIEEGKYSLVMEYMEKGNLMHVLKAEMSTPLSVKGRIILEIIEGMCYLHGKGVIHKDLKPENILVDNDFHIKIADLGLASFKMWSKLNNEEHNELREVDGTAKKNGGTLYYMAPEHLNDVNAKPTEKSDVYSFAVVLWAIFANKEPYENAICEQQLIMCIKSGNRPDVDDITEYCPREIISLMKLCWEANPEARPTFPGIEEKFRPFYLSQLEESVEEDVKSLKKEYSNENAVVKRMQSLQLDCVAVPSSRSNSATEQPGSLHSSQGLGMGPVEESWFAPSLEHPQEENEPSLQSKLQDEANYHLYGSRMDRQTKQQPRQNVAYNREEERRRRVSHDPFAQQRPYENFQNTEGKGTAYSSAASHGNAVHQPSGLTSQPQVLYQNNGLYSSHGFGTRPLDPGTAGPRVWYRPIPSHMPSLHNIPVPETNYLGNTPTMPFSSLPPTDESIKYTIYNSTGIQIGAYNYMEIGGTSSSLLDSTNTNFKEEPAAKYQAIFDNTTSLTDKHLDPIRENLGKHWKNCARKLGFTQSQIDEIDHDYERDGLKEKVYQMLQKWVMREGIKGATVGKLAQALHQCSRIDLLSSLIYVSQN
How it was run: (§1)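 KINOMEscan competition binding using kinase-tagged T7 phage or HEK-293-produced DNA-tagged protein captured on ligand beads, with eluted protein quantified by qPCR. Compounds were run as an 11-point 3-fold series, top 30,000 nM, in 1% DMSO. Kd was fitted with the Hill equation, slope fixed at −1.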

[3] = target: human RIPK3 (Homo sapiens (Human), UniProt Q9Y572); assay: KINOMEscan binding assay, human RIPK3; conditions: Table 21
human RIPK3, sequence (Q9Y572 whole entry): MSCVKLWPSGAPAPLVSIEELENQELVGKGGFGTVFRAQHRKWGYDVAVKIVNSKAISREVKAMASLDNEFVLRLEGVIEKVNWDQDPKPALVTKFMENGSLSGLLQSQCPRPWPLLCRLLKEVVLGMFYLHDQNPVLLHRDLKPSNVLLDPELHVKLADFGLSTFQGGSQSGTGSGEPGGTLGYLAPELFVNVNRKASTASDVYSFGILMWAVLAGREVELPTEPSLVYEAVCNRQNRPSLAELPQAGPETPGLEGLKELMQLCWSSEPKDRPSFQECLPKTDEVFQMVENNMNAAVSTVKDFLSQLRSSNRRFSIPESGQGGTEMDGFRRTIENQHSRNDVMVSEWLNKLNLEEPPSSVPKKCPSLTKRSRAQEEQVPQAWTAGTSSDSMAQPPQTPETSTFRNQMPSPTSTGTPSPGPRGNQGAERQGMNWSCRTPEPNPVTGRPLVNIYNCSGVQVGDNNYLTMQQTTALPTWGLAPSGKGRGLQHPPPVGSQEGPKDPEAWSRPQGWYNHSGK
How it was run: as §1

human MLKL (full length), sequence (Q8NB16 whole entry): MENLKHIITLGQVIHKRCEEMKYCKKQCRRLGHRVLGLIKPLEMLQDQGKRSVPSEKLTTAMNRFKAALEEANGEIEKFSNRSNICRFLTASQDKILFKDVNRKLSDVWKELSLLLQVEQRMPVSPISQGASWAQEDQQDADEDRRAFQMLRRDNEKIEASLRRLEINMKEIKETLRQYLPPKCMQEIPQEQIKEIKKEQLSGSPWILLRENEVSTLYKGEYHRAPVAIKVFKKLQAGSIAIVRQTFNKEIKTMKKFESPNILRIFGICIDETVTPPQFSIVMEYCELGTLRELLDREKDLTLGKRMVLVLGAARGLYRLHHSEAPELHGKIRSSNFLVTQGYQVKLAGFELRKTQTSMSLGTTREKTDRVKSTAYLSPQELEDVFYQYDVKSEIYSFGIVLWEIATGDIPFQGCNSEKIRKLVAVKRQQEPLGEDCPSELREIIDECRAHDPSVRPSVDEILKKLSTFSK

Kd [1] [µM]	Kd [2] [µM]	Kd [3] [µM]	Compound
< 0.001	> 10	> 10	C[C@@H](Oc1cc(-c2nn(C)c3c(-c4cnn(C5CCOCC5)c4)cnc(N)c23)ccc1NS(=O)(=O)C(F)F)c1ccc(F)cc1 [Compound 121, (R)-N-(4-(4-amino-1-methyl-7-(1-(tetrahydro-2H-pyran-4-yl)-1H-pyrazol-4-yl)-1H-pyrazolo[4,3-c]pyridin-3-yl)-2-(1-(4-fluorophenyl)ethoxy)phenyl)-1,1-difluoromethane-sulfonamide]
< 0.001	> 10	> 10	COc1ccc(-c2cnc(N)c3c(-c4ccc(NS(=O)(=O)C(F)F)c(O[C@@H](C)c5ccc(F)cc5)c4)nn(C)c23)cn1 [Compound 28, (S)-N-(4-(4-amino-7-(6-methoxypyridin-3-yl)-1-methyl-1H-pyrazolo[4,3-c]pyridin-3-yl)-2-(1-(4-fluorophenyl)ethoxy)phenyl)-1,1-difluoromethanesulfonamide]
< 0.001	> 10	> 10	C[C@H](Oc1cc(-c2nn(C)c3c(-c4cnn(C(C)(C)CO)c4)cnc(N)c23)ccc1NS(=O)(=O)C(F)F)c1ccc(F)cc1 [Compound 97, (S)-N-(4-(4-amino-7-(1-(1-hydroxy-2-methylpropan-2-yl)-1H-pyrazol-4-yl)-1-methyl-1H-pyrazolo[4,3-c]pyridin-3-yl)-2-(1-(4-fluorophenyl)ethoxy)phenyl)-1,1-difluoromethanesulfonamide]
	> 10	> 10	C[C@H](Oc1cc(-c2nn(C)c3c(-c4ccc5c(cnn5C)c4)cnc(N)c23)ccc1NS(=O)(=O)C(F)F)c1ccc(F)cc1 [Compound 166, (S)-N-(4-(4-amino-1-methyl-7-(1-methyl-1H-indazol-5-yl)-1H-pyrazolo[4,3-c]pyridin-3-yl)-2-(1-(4-fluorophenyl)ethoxy)phenyl)-1,1-difluoromethanesulfonamide]
	> 10	> 10	Nc1ncc(-c2cnn(C3CCOCC3)c2)c2occ(-c3ccc(NS(=O)(=O)CC(F)(F)F)c(OCc4ccc(F)cc4)c3)c12 [Compound 11, N-(4-(4-amino-7-(1-(tetrahydro-2H-pyran-4-yl)-1H-pyrazol-4-yl)furo[3,2-c]pyridin-3-yl)-2-((4-fluorobenzyl)oxy)phenyl)-2,2,2-trifluoroethane-1-sulfonamide]
	> 10	> 10	C[C@H](Oc1cc(-c2nn(C)c3c(N4CCOCC4)cnc(N)c23)ccc1NS(=O)(=O)C(F)F)c1ccc(F)cc1 [Compound 141, N-{4-[4-amino-1-methyl-7-(morpholin-4-yl)-1H-pyrazolo[4,3-c]pyridin-3-yl]-2-[(1S)-1-(4-fluorophenyl)ethoxy]phenyl}-1,1-difluoromethanesulfonamide]
	> 10	> 10	C[C@H](Oc1cc(-c2nn(C)c3c(-c4ccnc(C(F)(F)F)c4)cnc(N)c23)ccc1NS(=O)(=O)C(F)F)c1ccc(F)cc1 [Compound 23, (S)-N-(4-(4-amino-1-methyl-7-(2-(trifluoromethyl)pyridin-4-yl)-1H-pyrazolo[4,3-c]pyridin-3-yl)-2-(1-(4-fluorophenyl)ethoxy)phenyl)-1,1-difluoromethanesulfonamide]
	> 10	> 10	CCS(=O)(=O)Nc1ccc(-c2nn(C)c3c(NC(C)=O)cnc(N)c23)cc1OCc1ccc(F)cc1 [Compound 2, N-(4-amino-3-(4-(ethylsulfonamido)-3-((4-fluorobenzyl)oxy)phenyl)-1-methyl-1H-pyrazolo[4,3-c]pyridin-7-yl)acetamide]
	> 10	> 10	C[C@H](Oc1cc(-c2nn(C)c3c(-c4cnn(C5CCOCC5)c4)cnc(N)c23)ccc1NS(=O)(=O)N(C)C)c1ccc(F)cc1 [Compound 124]
	> 10	> 10	C[C@H](Oc1cc(-c2nn(C)c3c(-c4cnn5c4CNCC5)cnc(N)c23)ccc1NS(=O)(=O)C(F)F)c1ccc(F)cc1 [Compound 90, (S)—N-(4-(4-amino-1-methyl-7-(4,5,6,7-tetrahydropyrazolo[1,5-a]pyrazin-3-yl)-1H-pyrazolo[4,3-c]pyridin-3-yl)-2-(1-(4-fluorophenyl)ethoxy)phenyl)-1,1-difluoromethanesulfonamide]
	> 10	> 10	C[C@H](Oc1cc(-c2nn(C)c3c(-c4cnn(C5CCCNCC5)c4)cnc(N)c23)ccc1NS(=O)(=O)C(F)F)c1ccc(F)cc1 (stereo partly drawn) [Compound 74, N-(4-(4-amino-7-(1-(azepan-4-yl)-1H-pyrazol-4-yl)-1-methyl-1H-pyrazolo[4,3-c]pyridin-3-yl)-2-((S)-1-(4-fluorophenyl)ethoxy)phenyl)-1,1-difluoromethane-sulfonamide]
	> 10	> 10	C[C@H](Oc1cc(-c2nn(C)c3c(-c4cnn(C(F)(F)F)c4)cnc(N)c23)ccc1NS(=O)(=O)C(F)F)c1ccc(F)cc1 [Compound 134, (S)-N-(4-(4-amino-1-methyl-7-(1-(trifluoromethyl)-1H-pyrazol-4-yl)-1H-pyrazolo[4,3-c]pyridin-3-yl)-2-(1-(4-fluorophenyl)ethoxy)phenyl)-1,1-difluoromethanesulfonamide]
	> 10	> 10	CCS(=O)(=O)Nc1ccc(-c2coc3c(-c4cnn(CCO)c4)cnc(N)c23)cc1OCc1ccc(F)cc1 [Compound 4, N-(4-(4-amino-7-(1-(2-hydroxyethyl)-1H-pyrazol-4-yl)furo[3,2-c]pyridin-3-yl)-2-((4-fluorobenzyl)oxy)phe-nyl)ethanesulfonamide]
	> 10	> 10	COc1cc(-c2cnc(N)c3c(-c4ccc(NS(=O)(=O)C(F)F)c(O[C@@H](C)c5ccc(F)cc5)c4)nn(C)c23)ccn1 [Compound 27, (S)-N-(4-(4-amino-7-(2-methoxypyridin-4-yl)-1-methyl-1H-pyrazolo[4,3-c]pyridin-3-yl)-2-(1-(4-fluorophenyl)ethoxy)phenyl)-1,1-difluoromethanesulfonamide]
	> 10	> 10	Cn1nc(-c2ccc(NS(=O)(=O)C(F)F)c(OCc3ccc(F)cc3)c2)c2c(N)nccc21 [Compound 10, N-(4-{4-amino-1-methyl-1H-pyrazolo[4,3-c]pyridin-3-yl}-2-[(4-fluorophenyl)methoxy]phenyl)-1,1-difluoromethanesulfonamide]
	> 10	> 10	C[C@H](Oc1cc(-c2nn(C)c3c(-c4ccc(N5CCOCC5)nc4)cnc(N)c23)ccc1NS(=O)(=O)C(F)F)c1ccc(F)cc1 [Compound 115, (S)-N-(4-(4-amino-1-methyl-7-(6-morpholinopyridin-3-yl)-1H-pyrazolo[4,3-c]pyridin-3-yl)-2-(1-(4-fluorophenyl)ethoxy)phenyl)-1,1-difluoromethanesulfonamide]
	> 10	0.1 to 10	C[C@H](Oc1cc(-c2nn(C)c3c(-c4cnn(C5CCCC5)c4)cnc(N)c23)ccc1NS(=O)(=O)C(F)F)c1ccc(F)cc1 [Compound 30, (S)-N-(4-(4-amino-7-(1-cyclopentyl-1H-pyrazol-4-yl)-1-methyl-1H-pyrazolo[4,3-c]pyridin-3-yl)-2-(1-(4-fluorophenyl)ethoxy)phenyl)-1,1-difluoromethanesulfonamide]
	> 10	> 10	C[C@H](Oc1cc(-c2nn(C)c3c(-c4cnn5c4CN(C)CC5)cnc(N)c23)ccc1NS(=O)(=O)C(F)F)c1ccc(F)cc1 [Compound 91, (S)—N-(4-(4-amino-1-methyl-7-(5-methyl-4,5,6,7-tetrahydropyrazolo[1,5-a]pyrazin-3-yl)-1H-pyrazolo[4,3-c]pyridin-3-yl)-2-(1-(4-fluorophenyl)ethoxy)phenyl)-1,1-difluoromethanesulfonamide]
	> 10	> 10	C[C@H](Oc1cc(-c2nn(C)c3c(-c4cccc(Cl)c4)cnc(N)c23)ccc1NS(=O)(=O)C(F)F)c1ccc(F)cc1 [Compound 84, (S)-N-(4-(4-amino-7-(3-chlorophenyl)-1-methyl-1H-pyrazolo[4,3-c]pyridin-3-yl)-2-(1-(4-fluorophenyl)ethoxy)phenyl)-1,1-difluoromethanesulfonamide]
	> 10	> 10	C[C@H](Oc1cc(-c2nn(C)c3c(-c4ccccc4Cl)cnc(N)c23)ccc1NS(=O)(=O)C(F)F)c1ccc(F)cc1 [Compound 85, (S)-N-(4-(4-amino-7-(2-chlorophenyl)-1-methyl-1H-pyrazolo[4,3-c]pyridin-3-yl)-2-(1-(4-fluorophenyl)ethoxy)phenyl)-1,1-difluoromethanesulfonamide]
